Source: patent publication US9220928B2, “Plant extracts from Acronychia species and their use” (EcoBiotics Ltd, priority 2008, dated 2015)

Tested on: Streptococcus salivarius K40
Test: Antibacterial growth inhibition assay
Type: cell-based
Settings: HPLC fractions and two pure compounds, further test; Table 9
Method: The bacteria used in these studies were: • Streptococcus salivarius […] • Bacillus subtilis All antibacterial assays were carried out in a laminar flow cabinet using the protocol described below. Growth or no-growth was assessed visually and by ELISA reader. […] This was then placed in the bacterial shaker at 37° C. at 210 rpm overnight. • 2) A blank reading was made on the spectrophotometer at 600 nm using […] of Columbia broth. A reading of 200 μL of the starter culture was then taken. • 3) In calculations, a final concentration of 0.005 was desired. The formula used for dilution of x mL starter was: x*A600=0.005*desired volume • 4) 90 uL of MeOH was added to each well of a 96 well flat bottomed plate. 10 μL of sample was added to the top well and diluted 1:10 down the plate. Alternatively the top rows were left empty of MeOH and 100 μL of sample was added and then diluted at 1:10 down the plate. • 5) The plates were then left to dry in a biological safety cabinet for 2-3 hours or until all solvent had evaporated off the plate. • 6) 100 μL of diluted bacterial culture was then added to each well of the plate. The plate was then placed in the bacterial incubator at 37° C. overnight. […] For quantitation, plates were read at 405 nm (ELISA). […]

Row | SMILES | Amount of fraction giving 100% inhibition of growth of S. salivarius
1 | COc1cc(CCC(=O)O)ccc1OC/C=C(\C)CC/C=C(\C)CCC=C(C)C [EBC125, 3-(4-farnesyloxy-3-methoxyphenyl)propionic acid] | 1 µL
2 | CC(C)=CCC/C(C)=C/CC/C(C)=C/COc1ccc(CCC(=O)O)cc1 [EBC111, 3-(4-farnesyloxyphenyl)propionic acid] | 10Ag
